# Biological target: T1, mvNei1 (Acanthamoeba polyphaga mimivirus, UniProt Q5UQ00)
# T1 construct: 6His (C); made in house; host or cells: E. coli Rosetta2 (DE3)
# Test: mvNei1 DNA glycosylase/AP lyase activity assay on DHU:G 24-mer duplex
# Format: biochemical
# Settings: not given
# Experimental: Figure 4 Comparative analysis of the effect of 2TX and TXn on Fpg/Nei DNA glycosylases. Enzyme activities were measured as described in the Figure 1 legend using […] of a 5′-[^32P]-24-mer DNA duplex containing either an 8-oxoG opposite C for LlFpg or a […] (DHU) opposite G for hNeil1 and mvNei1. The DNA probe was incubated with the indicated protein concentration and 0.2 mM TXn compounds in the presence or absence of 1 mM dithiothreitol (DTT) and TCEP (a representative experiment is illustrated by the upper histograms). The DNA probe for EMSA was 0.1 nM of 5′-[^32P]-[…] DNA duplex containing THF with LlFpg and mvNei1 (bottom panels: gel autoradiography) with the indicated conditions and as described in ‘Materials and Methods’.
# Fpg, hNeil1 and mvNei1 are bifunctional DNA glycosylases associated with concerted DNA glycosylase activity (cleavage of the N-glycosidic bond between the base lesion and the C1′ of the deoxyribose) and AP lyase activity that comprises the successive cleavage of the phosphodiester bonds at the 3′ and 5′ of the resulting abasic (AP) site, respectively (β, δ-elimination). Thus, AP sites that result from the excision of the damaged base are quantitatively converted into one nucleoside gap by these enzymes. The DNA glycosylase/AP lyase activity of each enzyme was measured by incubating 20 nM of 24-mer DNA duplexes ([OG:C] and [DHU:G] for Fpg and hNeil1/mvNei1, respectively) 5′-labeling on the damaged strand (see above) with 2 nM of Fpg, or mvNei1 for 15 min or, with 20 nM of hNeil1 for 30 min at 37 °C in 10 mM Tris-HCl, pH 7.6, 150 mM NaCl, 1 mM EDTA, 0.1 mg/mL BSA and 8% DMSO. The reaction was stopped by the addition of 1 volume of formamide loading buffer (96% formamide, 20 mM Tris/HCl pH 8.0 and 2 mM Na2EDTA), heated at 80 °C for 2 min and then analyzed by 20% Urea-PAGE, as previously described. […] Under these conditions, only 50% of the substrate is converted to the cleavage product (limiting enzyme concentration conditions). For an initial evaluation of the inhibitory effect, 40 µM of 2TX/TXn was used. The thio-compound was added to the reaction mixture before the final addition of the enzyme (competition condition). For the best identified inhibitors, a dose-response curve was generated and IC50^A determined (Figure 1 and Table 1).
# T1 sequence (Q5UQ00 whole entry): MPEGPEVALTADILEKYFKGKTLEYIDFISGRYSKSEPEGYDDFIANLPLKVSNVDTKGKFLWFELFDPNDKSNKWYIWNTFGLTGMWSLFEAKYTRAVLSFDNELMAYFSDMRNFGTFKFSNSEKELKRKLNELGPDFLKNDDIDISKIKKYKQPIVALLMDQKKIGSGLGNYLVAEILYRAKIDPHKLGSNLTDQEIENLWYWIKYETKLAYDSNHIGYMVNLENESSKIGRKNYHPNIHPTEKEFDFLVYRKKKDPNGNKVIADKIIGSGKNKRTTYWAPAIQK
row,SMILES,IC50
1,"O=c1[nH]c2[nH]c(=S)[nH]c(=O)c2[nH]1 [TX14, 2-thio-6,8-dioxopurine]",> 500 µM
2,Nc1ncnc2[nH]c(S)nc12 [TX27],277 ± 18 µM

# Same assay, conditions: 0.2 mM compound; Figure 4
row,SMILES,effect on mvNei1 catalytic activity
1,"O=c1[nH]c(=S)[nH]c2nc[nH]c12 [Compound 2TX, 2-thioxanthine, reference compound]",did not significantly affect
2,O=c1[nH]c(=S)[nH]c2[nH]c(=S)[nH]c12 [TX19],apparent inhibitory effects

# Same assay, conditions: 1 mM TCEP (DTT to a lesser extent); Figure 4
row,SMILES,inhibition of mvNei1 DNA binding and catalytic activities in the presence of TCEP
1,O=c1[nH]c(=S)[nH]c2[nH]c(=S)[nH]c12 [TX19],suppressed

# Same assay, conditions: catalytic activity at 37 °C; compound stock in DMSO; DHU:G 24-mer; read-out: IC50app^A (Fpg/Nei enzyme catalysis) mvNEI1
row,SMILES,IC50
1,"O=c1[nH]c(=S)[nH]c2nc[nH]c12 [Compound 2TX, 2-thioxanthine, reference compound]",> 500 µM
2,O=c1[nH]c(=S)[nH]c2[nH]c(=S)[nH]c12 [TX19],124 ± 4 µM
3,"FC(F)(F)c1nc(S)c2nc[nH]c2n1 [TX13, 2-trifluoromethyl-6-thiopurine]",> 500 µM

# Biological target: T2, LlFpg/DNA complex C2 (Lactococcus lactis subsp. cremoris, UniProt P42371)
# T2 construct: made in house; host or cells: E. coli BH540 (fpg defective)
# T2 sequence (P42371 2-273 limits assumed): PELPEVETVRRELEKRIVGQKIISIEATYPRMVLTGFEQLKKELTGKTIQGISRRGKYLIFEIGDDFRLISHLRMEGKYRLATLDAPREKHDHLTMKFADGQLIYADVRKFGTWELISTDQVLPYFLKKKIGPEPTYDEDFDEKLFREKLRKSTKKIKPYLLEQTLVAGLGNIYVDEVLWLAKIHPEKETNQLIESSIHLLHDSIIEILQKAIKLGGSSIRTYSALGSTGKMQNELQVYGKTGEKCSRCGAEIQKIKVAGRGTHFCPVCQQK
# Test: EMSA, Fpg DNA binding to 14-mer [THF:C] duplex, non-specific complex C2 (Fpg/DNA 2/1)
# Settings: [1/1] molar ratio TCEP/compound (1 mM each); Figure S6
# From the text: To complement this study, we examined the effect of TXn on the binding of Fpg to a short DNA duplex containing a tetrahydrofuran (THF), a non-cleavable AP site analog. The enzyme specifically recognizes THF and forms a stable abortive complex with DNA [18, 34, 35, 36]. […] A representative titration experiment (with and without TCEP) of the 14-mer [THF:C] Fpg formed two stable complexes with this short DNA probe that were easily observed by EMSA: a high-affinity complex C1 corresponding to the lesion recognition complex (LRC), with nanomolar affinity, and a complex C2 only observed at higher Fpg concentrations. C2 results in C1 titration by a second Fpg molecule. This finding illustrates that the crystal structure of Fpg bound to 8-oxoG-carbanucleotide-containing DNA [38] (Figure S5). The stability of each preformed complex was then examined by EMSA in the presence of 2TX or TXn. […] The enzyme inactivation mediated by 2TX through ZnF oxidation that directly affects the DNA binding properties of the enzyme is also in agreement with this last observation.
# The inhibitor concentrations that induced the loss of the half-maximal binding (IC50app^B) were determined from these curves and are reported in Table 1. IC50app^B compared well with IC50app^A. As observed above for the enzyme activity, strong reducers, such as TCEP, abolished the negative effects of 2TX and TXn on Fpg/DNA complex stability and formation. These findings again indicate that inhibition by thio-compounds essentially relies on the oxidation of the Fpg ZnF (for an example, see experiment with TX19, Figure S4). […] This troubling and unexpected observation led us to evaluate this effect with the TXn small library compounds. To prevent a side effect due to a possible partial reduction by TCEP, we performed EMSA in the presence of a 6.7-fold molar excess of TCEP with respect to 2TX and TXn after complex formation (Figure 3).
# Figure 3 Impact of TXn on the non-specific Fpg/DNA complex C2 stability in highly reducing conditions. EMSA was performed as described in the ‘Material & Methods’, except TCEP was added at a 2 mM final concentration in each binding assay. (a) Representative experiment at 0.3 mM 2TX and more efficient TXn; (b) Dose-response with the best TXn. Upper panel: Representative EMSA experiment with TX10. Lower panel: Dose-response curves with the indicated TXn.
# The DNA binding activity was measured using EMSA [37]. Briefly, 0.1 nM of the 5′-labeled 14-mer [THF:C] (see above) was incubated with the enzyme at 4 °C for 30 min in 25 mM HEPES/NaOH (pH 7.5), 150 mM NaCl, 5% glycerol, 0.1 mg/mL BSA and 8% DMSO. The incubation mixture was then loaded onto a native 10% polyacrylamide gel (Acryl/Bis 19/1) and electrophoresed at 25 V/cm for 90 min at 4 °C. After electrophoresis, the gels were dried and exposed overnight for autoradiography using a Typhoon imager and quantified with ImageQuant software. To evaluate the inhibitor effect of 2TX/TXn on the DNA binding activity of each Fpg/Nei enzyme, we first determined the experimental conditions required to bind 50% of the DNA probes without an inhibitor in the presence of 8% DMSO (limiting enzyme concentration). Under these conditions, we obtained the half-maximal DNA binding 0.25, 7 and 5 nM of Fpg, hNeil1 and mvNei1. We used this limited enzyme concentrations to evaluate the inhibitor effect of 2TX/TXn on the enzyme DNA binding activity. This effect was determined by the addition of the thio-compound in the pre-equilibrium mixture of the enzyme and DNA probe (30 min) and incubated for an additional 30 min at 4 °C. For the best inhibitors of Fpg, a dose-response curve was established from at least three independent experiments and the IC50 was determined (IC50^B, Table 1). […]
# Rieux et al. Thiopurine derivative-induced Fpg/Nei DNA glycosylase inhibition:
# structural, dynamic and functional insights
# Figure S6. […]
row,SMILES,effect on stability of preformed complex C2 in the presence of TCEP
1,"O=c1[nH]c(=S)[nH]c2nc[nH]c12 [Compound 2TX, 2-thioxanthine, reference compound]",moderate effect
2,O=c1[nH]c(=S)[nH]c2[nH]c(=S)[nH]c12 [TX19],moderate effect
3,"FC(F)(F)c1nc(S)c2nc[nH]c2n1 [TX13, 2-trifluoromethyl-6-thiopurine]",strongly destabilized
4,"O=c1[nH]c2[nH]c(=S)[nH]c(=O)c2[nH]1 [TX14, 2-thio-6,8-dioxopurine]",moderate effect
5,Nc1ncnc2[nH]c(S)nc12 [TX27],strongly destabilized

# Same assay, conditions: value in parentheses; 10 nM Fpg
row,SMILES,"number of TXn equivalents per one protein equivalent for 50% inhibition of DNA binding activity, C2"
1,"O=c1[nH]c(=S)[nH]c2nc[nH]c12 [Compound 2TX, 2-thioxanthine, reference compound]",NA (9.7)
2,O=c1[nH]c(=S)[nH]c2[nH]c(=S)[nH]c12 [TX19],NA (2)
3,"FC(F)(F)c1nc(S)c2nc[nH]c2n1 [TX13, 2-trifluoromethyl-6-thiopurine]",NA (1.3)
4,"O=c1[nH]c2[nH]c(=S)[nH]c(=O)c2[nH]1 [TX14, 2-thio-6,8-dioxopurine]",NA (2.8)
5,Nc1ncnc2[nH]c(S)nc12 [TX27],NA (4)

# From publication PMC7139703, “Thiopurine Derivative-Induced Fpg/Nei DNA Glycosylase Inhibition: Structural, Dynamic and Functional Insights” (International Journal of Molecular Sciences, 2020)
